Assay results reported in publication PMC10017155 (Aging and Disease, 2023).

Key:
H6R-Aβ16 = conditions: ref [9]; cited from earlier work
Source text: The dimeric form has a well-resolved characteristic signal of the V12 methyl group at 0.2 ppm, which allows for a quantitative assessment of the dimeric state. […] Thus, the ...

transgenic mice = conditions: in contrast to normal Aβ; ref [23], [24]; cited from earlier work
Source text: The development of AD comprises a cascade of pathogenic processes in brain tissue. Some of the major elements of this cascade are the aggregation of beta-amyloid (Aβ) with the formation of neurotoxic oligomers, hyperphosphorylation of tau, and neuroinflammation. […] In the sporadic form of AD, accounting for 95% of disease cases, the molecular triggers for the pathological cascade remain unknown. […] We hypothesized that the contribution of isoD7-Aβ to the development of AD is based on the formation of zinc-bound complexes that promote pathological aggregation of Aβ (Fig. 1A). […] Interaction of HAEE with beta-amyloid. (A) A model for the contribution of isoD7-Aβ to AD pathology, and the possible ways of preventing its deleterious effects. Aβ spontaneously converts into isoD7-Aβ, which is accumulated over age, likely due to reduced Aβ clearance. Isomerized Aβ promotes AD pathology, potentially via formation of Zn-bound complexes serving as the seeds for a generation of neurotoxic oligomers. Treatment with anti-isoAβ antibodies is a promising therapeutic strategy already showing effectiveness in AD model mice ^9.

[1] = compared with normal Aβ; ref [9]; cited from earlier work
Source text: We hypothesized that the contribution of isoD7-Aβ to the development of AD is based on the formation of zinc-bound complexes that promote pathological aggregation of Aβ (Fig. 1A).

isoD7-Aβ16 = assay: NMR titration, isoD7-Aβ16 with HAEE and Zn2+; format: binding; conditions: addition of Zn2+ without HAEE; disappearance of NMR signal (Supplementary Fig. 3); also ref [9]
Description: Peptides Aβ16, H6R-Aβ16 and isoD7-Aβ16 at the concentration of 0.2 - 8mM were dissolved in 10-20 mM bis-Tris-d19 (2,2-Bis(hydroxymethyl)-2,2′,2"-nitrilotrie-thanol-d19 with 98% ^2D enrichment) buffer solution (pH 6.8). Sodium salt of 3-(trimethylsilyl) propionic-2,2,3,3-d4 acid (DSS) at a concentration of 10-20 μM was added as the standard. NMR spectra were measured at 278 K in 90% H2O/10% D2O with Bruker AVANCE 600 MHz spectrometer equipped with triple resonance (^1H, ^13C and ^15N) pulsed field z gradient probe. 1D NMR spectra were processed and analyzed using the Mnova software (Mestrelab Research, Spain). In order to monitor peptide-peptide interactions NMR titration experiments were carried out. […] 1D spectra were recorded for each titration point.

| Substance | State of H6R-Aβ16 in the presence of Zn2+ (H6R-Aβ16) | Amyloidosis in transgenic mice (transgenic mice) | Zinc-dependent aggregation [1] | Effect of Zn2+ on isoD7-Aβ16 (oligomerization; NMR signal) (isoD7-Aβ16) |
| --- | --- | --- | --- | --- |
| Ac-DAEFRRDSGYEVHHQK-NH2 [H6R-Aβ16, Aβ1-16 variant with the English (H6R) mutation] | mixture of monomeric and dimeric forms | – | – | – |
| Ac-DAEFRH[isoD]SGYEVHHQK-NH2 [isoD7-Aβ16, reference compound] | – | stimulate amyloidosis | increased capacity | almost complete oligomerization and precipitation |
